Data taken from patent US20080262097A1, “Formulations” (priority 2005, published 2008).
Converted amounts (≈) assume the structure as drawn.

Experiments:
P. acnes NCTC 737 [1] = test: Disc diffusion assay (DDA); type: cell-based, Propionibacterium acnes; details: Table 11 (Example 9), 200 μg per disc, mean of three replicates
Protocol: (§1) 2. Propionibacterium spp.—the principal propionibacterial strain used in these studies was Propionibacterium acnes NCTC 737.
(§2) The Propionibacterium spp organisms were cultured and maintained on Wilkins-Chalgren Anaerobe Medium (agar and broth) at pH 6.0; cultures were incubated anaerobically at 37° C. for 72 hours.
A sterile paper disc was impregnated with a sample of the test compound and a minimum of 30 minutes allowed for the solvents to evaporate as far as possible. The disc was then placed on an agar plate onto which the test micro-organism had been inoculated. The plate was then incubated under the conditions described above, following which it was examined visually for signs of bacterial growth. […] The diameter of this zone of “inhibition” was measured using a ProtoCOL™ automated zone sizer (Synbiosis, Cambridge, UK).
The area of the zone of inhibition was calculated from the measured zone diameter (D) using the formula π(D/2)^2.
(§3) For all (S)DDA assays, 200 μg of each compound was loaded onto each disc.

P. acnes NCTC 737 [2] = test: Synergy disc diffusion assay (SDDA); type: cell-based, Propionibacterium acnes; details: for SDDA area increase / SDDA increase: peroxide + TBHQ; for SDDA area increase: over larger single-compound zone; for SDDA increase: over larger single-compound zone diameter; for SDDA with TBHQ: peroxide combined with TBHQ on one disc, 200 μg of each
Protocol: as §1, §2
This is a variation on the DDA method, in which two compounds are tested together for their combined antimicrobial activity. It provides a qualitative indication as to whether the compounds are likely to interact synergistically.
Two test compounds A and B were placed on a single paper disc and the above described DDA procedure repeated.
Each of the quinones was then subjected, in combination with BP, to the SDDA assay described above.
as §3

S. aureus ATCC 29213 [3] = test: MIC assay; type: cell-based, Staphylococcus aureus; details: S. aureus ATCC 29213; Table 1 (Example 1)
Protocol: 1. Staphylococcus aureus—the principal staphylococcal test micro-organism used in these studies was Staphylococcus aureus ATCC 29213. This strain is the one recommended for QC/QA purposes in Minimum Inhibitory Concentration (MIC) assays by the US Clinical and Laboratory Standards Institute (formerly the NCCLS), an FDA-recognised body. […] The staphylococci and enterococci were cultured and maintained on Mueller-Hinton Medium (agar and broth) at pH 7.2; they were incubated aerobically at 37° C. for 24 hours. This is a standard international method for quantitatively assessing the antimicrobial activity of a compound in a liquid medium. The method used a 96-well microtitre plate, capable of holding about 200 μl of liquid per well. […] The culture media were as described above for the relevant test organisms. The wells were inoculated with a liquid suspension of freshly grown micro-organism and incubated under the conditions described above. After incubation, the microtitre plate was examined visually (with the aid of a light box) for cell pellets in and/or opaque wells, which would indicate microbial growth. The MIC value was recorded as the lowest concentration of test compound required to inhibit microbial growth, ie, the lowest concentration for which the liquid in the well remained clear. The assays were conducted in duplicate and included both negative (culture medium only) and positive (culture medium, diluting solvent and inoculum) controls.

S. aureus ATCC 29213 [4] = test: MBC assay; type: cell-based, Staphylococcus aureus; details: S. aureus ATCC 29213; Table 1 (Example 1)
Protocol: 1. Staphylococcus aureus—the principal staphylococcal test micro-organism used in these studies was Staphylococcus aureus ATCC 29213. This strain is the one recommended for QC/QA purposes in Minimum Inhibitory Concentration (MIC) assays by the US Clinical and Laboratory Standards Institute (formerly the NCCLS), an FDA-recognised body. […] The staphylococci and enterococci were cultured and maintained on Mueller-Hinton Medium (agar and broth) at pH 7.2; they were incubated aerobically at 37° C. for 24 hours. This assay, normally carried out after an MIC assay, determines the minimum concentration of a compound that is lethal to the micro-organism being tested. […] These samples were then individually sub-cultured on non-selective agar medium, under the incubation conditions described above. Following incubation they were examined visually for bacterial growth.

S. aureus ATCC 29213 [5] = test: Disc diffusion assay (DDA); type: cell-based, Staphylococcus aureus; details: Table 1, zone diameter, 200 μg per disc (thymoquinone 50 μg)
From the text: 1. Staphylococcus aureus—the principal staphylococcal test micro-organism used in these studies was Staphylococcus aureus ATCC 29213. This strain is the one recommended for QC/QA purposes in Minimum Inhibitory Concentration (MIC) assays by the US Clinical and Laboratory Standards Institute (formerly the NCCLS), an FDA-recognised body. S. aureus ATCC 29213 is susceptible to beta-lactam antibiotics such as methicillin and to many other antibiotics in clinical use worldwide today. The staphylococci and enterococci were cultured and maintained on Mueller-Hinton Medium (agar and broth) at pH 7.2; they were incubated aerobically at 37° C. for 24 hours. A sterile paper disc was impregnated with a sample of the test compound and a minimum of 30 minutes allowed for the solvents to evaporate as far as possible. The disc was then placed on an agar plate onto which the test micro-organism had been inoculated. The plate was then incubated under the conditions described above, following which it was examined visually for signs of bacterial growth. If the test compound had antimicrobial activity, a circular zone of no growth would be obtained around the disc. The diameter of this zone of “inhibition” was measured using a ProtoCOL™ automated zone sizer (Synbiosis, Cambridge, UK). In general, a greater diameter and/or area of the zone of inhibition indicates a greater antimicrobial activity in the relevant test compound, although other factors such as test compound mobility through the agar gel may also influence the result. […] The exceptions were the thymoquinone assays, in which only 50 μg of the benzoquinone was used.

S. aureus ATCC 29213 [6] = test: Synergy disc diffusion assay (SDDA); type: cell-based, Staphylococcus aureus; details: for SDDA area increase / SDDA increase: quinone + BP; for SDDA area increase: over larger single-compound zone; for SDDA increase: over larger single-compound zone diameter; for SDDA with BP: quinone combined with BP on one disc, 200 μg of each (thymoquinone 50 μg)
From the text: 1. Staphylococcus aureus—the principal staphylococcal test micro-organism used in these studies was Staphylococcus aureus ATCC 29213. This strain is the one recommended for QC/QA purposes in Minimum Inhibitory Concentration (MIC) assays by the US Clinical and Laboratory Standards Institute (formerly the NCCLS), an FDA-recognised body. S. aureus ATCC 29213 is susceptible to beta-lactam antibiotics such as methicillin and to many other antibiotics in clinical use worldwide today. The staphylococci and enterococci were cultured and maintained on Mueller-Hinton Medium (agar and broth) at pH 7.2; they were incubated aerobically at 37° C. for 24 hours. This is a variation on the DDA method, in which two compounds are tested together for their combined antimicrobial activity. It provides a qualitative indication as to whether the compounds are likely to interact synergistically. Two test compounds A and B were placed on a single paper disc and the above described DDA procedure repeated. An increase in diameter of the zone of inhibition, compared to the greater of the zone diameters for the two compounds individually, was taken to indicate potential antimicrobial synergy. […] The larger the increase in zone size, the greater the likelihood of a synergistic interaction between the two test compounds. Each of the quinones was then subjected, in combination with BP, to the SDDA assay described above. In each case, increases in zone diameter (mm) and area (%) were measured with respect to those observed for the compound showing the larger zone diameters during the previous disc diffusion assays on the individual compounds. […] The exceptions were the thymoquinone assays, in which only 50 μg of the benzoquinone was used.

S. aureus ATCC 29213 [7] = test: Supplemented disc diffusion assay (DDA + salt, lipid or blood); type: cell-based, Staphylococcus aureus; details: 200 μg per disc (thymoquinone 50 μg); for DDA + blood: agar supplemented with blood; for DDA + lipid: agar supplemented with lipid; for DDA + salt: agar supplemented with salt
Protocol: The staphylococci and enterococci were cultured and maintained on Mueller-Hinton Medium (agar and broth) at pH 7.2; they were incubated aerobically at 37° C. for 24 hours. A sterile paper disc was impregnated with a sample of the test compound and a minimum of 30 minutes allowed for the solvents to evaporate as far as possible. The disc was then placed on an agar plate onto which the test micro-organism had been inoculated. The plate was then incubated under the conditions described above, following which it was examined visually for signs of bacterial growth. If the test compound had antimicrobial activity, a circular zone of no growth would be obtained around the disc. The diameter of this zone of “inhibition” was measured using a ProtoCOL™ automated zone sizer (Synbiosis, Cambridge, UK). In general, a greater diameter and/or area of the zone of inhibition indicates a greater antimicrobial activity in the relevant test compound, although other factors such as test compound mobility through the agar gel may also influence the result. Either the DDA or the SDDA tests may be carried out using an agar gel supplemented with blood, lipid and/or salt to simulate some of the major components present in human skin and to assess whether these substances might reduce the antimicrobial activity observed for the test compounds. Performance under these conditions can provide a more reliable indication of activity on topical application. […] MIC, MBC and DDA assays, as described above, were carried out using the test compound benzoyl peroxide (BP) and a range of different benzoquinones and hydroquinones. Supplemented DDA assays, in the presence of salt, lipid and blood, were also conducted. […] The exceptions were the thymoquinone assays, in which only 50 μg of the benzoquinone was used.

Work on `CC(C)(C)OO` [t-butyl hydroperoxide] yielded a DDA (P. acnes NCTC 737 [1]) of 0.0 mm, an SDDA area increase (P. acnes NCTC 737 [2]) of 188.77% and an SDDA increase (P. acnes NCTC 737 [2]) of 10.49 mm. For the same molecule, the “SDDA with TBHQ” value (P. acnes NCTC 737 [2]) was 25.49 mm.
In the case of `Cc1cc(O)c(C(C)C)cc1O` [thymohydroquinone, 2-iso-propyl-5-methyl-p-hydroquinone], the MIC (S. aureus ATCC 29213 [3]) is reported as 7.8 µg/mL (≈ 46.9 µM), the MBC (S. aureus ATCC 29213 [4]) is reported as 15.6 µg/mL (≈ 93.9 µM) and the DDA (S. aureus ATCC 29213 [5]) is reported as 57.62 mm. For the same molecule, the SDDA area increase (S. aureus ATCC 29213 [6]) was 70.26%, the SDDA increase (S. aureus ATCC 29213 [6]) was 17.56 mm and the “SDDA with BP” value (S. aureus ATCC 29213 [6]) was 75.18 mm. The “DDA + blood” value (S. aureus ATCC 29213 [7]) was 10.27 mm, the “DDA + lipid” value (S. aureus ATCC 29213 [7]) was 41.71 mm and the “DDA + salt” value (S. aureus ATCC 29213 [7]) was 57.59 mm.
For `[Ca+2].[O-][O-]` [calcium peroxide], the DDA (P. acnes NCTC 737 [1]) was 0.0 mm, the SDDA area increase (P. acnes NCTC 737 [2]) was 544.48% and the SDDA increase (P. acnes NCTC 737 [2]) was 23.08 mm. For the same molecule, the “SDDA with TBHQ” value (P. acnes NCTC 737 [2]) was 38.08 mm.
`[Mg+2].[O-][O-]` [magnesium peroxide] showed a DDA (P. acnes NCTC 737 [1]) of 0.0 mm, an SDDA area increase (P. acnes NCTC 737 [2]) of 523.33% and an SDDA increase (P. acnes NCTC 737 [2]) of 22.45 mm. For the same molecule, the “SDDA with TBHQ” value (P. acnes NCTC 737 [2]) was 37.45 mm.
`Cc1cc(O)ccc1O` [2-methyl-p-hydroquinone] gave an MIC (S. aureus ATCC 29213 [3]) of 15.6 µg/mL (≈ 126 µM), an MBC (S. aureus ATCC 29213 [4]) of 15.6 µg/mL (≈ 126 µM) and a DDA (S. aureus ATCC 29213 [5]) of 25.70 mm. For the same molecule, the SDDA area increase (S. aureus ATCC 29213 [6]) was 62.56%, the SDDA increase (S. aureus ATCC 29213 [6]) was 7.07 mm and the “SDDA with BP” value (S. aureus ATCC 29213 [6]) was 32.77 mm. The “DDA + blood” value (S. aureus ATCC 29213 [7]) was 18.74 mm, the “DDA + lipid” value (S. aureus ATCC 29213 [7]) was 24.68 mm and the “DDA + salt” value (S. aureus ATCC 29213 [7]) was 22.49 mm.
In the case of `[Na+].[Na+].[O-][O-]` [sodium peroxide], the DDA (P. acnes NCTC 737 [1]) is reported as 0.0 mm, the SDDA area increase (P. acnes NCTC 737 [2]) is reported as 128.21% and the SDDA increase (P. acnes NCTC 737 [2]) is reported as 7.66 mm. The “SDDA with TBHQ” value (P. acnes NCTC 737 [2]) was 22.66 mm.
